{"source": "patent US11998577B2", "about": "“Methods for increasing growth of beneficial bacteria in the gastrointestinal tract” (ABBOTT LABORATORIES, priority 2017, dated 2024)", "key": {"B. longum": {"tested_on": "B. longum", "test": "Fecal fermentation, quantification of B. longum species by real-time PCR", "format": "cell-based, Bifidobacterium longum", "conditions": "faecal slurry fermentation; 2′-FL at both daily (DD) and per intake (DI) doses; p<0.05 vs product (DD) and blend (DI)", "protocol": "(§1) Example 2: A series of experiments were carried out to determine the effects of providing 2′-FL, lutein, and RRR-alpha-tocopherol on bacterial growth. Fecal fermentations were carried out by using 3 ml fermentations in 10 ml fermentor (24 multi-well plate; μ-24 Bioreactor, Applikon Biotechnology). Fresh faecal sample came from a formula (without prebiotic or probiotic)-fed baby. Stools were vacuum stored in refrigerated conditions until the fermentation. Fresh feces were weighed and dissolved in Mc Bain and MacFarlane medium (1:5) to hydrate them. Three milliliters of the homogenized mixture (faecal slurry) were inoculated in each fermenter. In each case, prebiotic (2′-FL), RRR-alpha-tocopherol (vitamin E) and lutein were added at different dosage (Table 4). […] Anaerobiosis, temperature (37° C.) and pH levels (pH 5.5) were maintained during the assay and monitored throughout the study. […] For quantification, previous extracted DNA was used. Real-time PCR was used to quantify genera Bifidobacterium and Lactobacillus, and B. longum and L. fermentum species. In the case of genus Bifidobacterium and B. longum, quantification was performed with primers described by Matsuki et al.1. Lactobacillus group was quantified with primers described by Byun et al.2. Lactobacillus fermentum was quantified with the aid of primers designed by Matsuda et al.3 Nucleotide sequences of primers are listed in Table 5. […]"}, "genus Bifidobacterium": {"tested_on": "genus Bifidobacterium", "test": "Fecal fermentation, quantification of genus Bifidobacterium by real-time PCR", "format": "cell-based", "conditions": "faecal slurry of formula-fed baby, 37° C., pH 5.5, anaerobic; 2′-FL at both daily (DD) and per intake (DI) doses; p<0.05 vs blend (DD) and blend (DI)", "protocol": "as §1"}, "L. fermentum": {"tested_on": "L. fermentum", "test": "Fecal fermentation, quantification of L. fermentum species by real-time PCR", "format": "cell-based, Lactobacillus fermentum", "conditions": "faecal slurry fermentation; detection limit 1.00·103CFU/g slurry", "protocol": "as §1"}}}
{"smiles": "C[C@@H]1O[C@@H](O[C@H]2[C@H](O[C@H]3[C@H](O)[C@@H](O)C(O)O[C@@H]3CO)O[C@H](CO)[C@H](O)[C@@H]2O)[C@@H](O)[C@H](O)[C@@H]1O", "note": "(stereo partly drawn) [2′-FL, 2′-fucosyllactose]", "values": [{"measurement": "B. longum numbers (real-time PCR, FIG. 2)", "setting": "B. longum", "result": "significant higher B. longum numbers"}, {"measurement": "bifidobacteria numbers (real-time PCR, FIG. 1)", "setting": "genus Bifidobacterium", "result": "significant higher bifidobacteria numbers"}, {"measurement": "L. fermentum detection (real-time PCR, FIG. 4)", "setting": "L. fermentum", "result": "reached detectable values"}]}
